Patent US20190192521A1, “Methods of Treating Arid1A-Mutated Cancers With HDAC6 Inhibitors and EZH2 Inhibitors” (The Wistar Institute of Anatomy and Biology, priority 2016, published 2019)
“Also recorded” adds a separate entry of the source.

Tests used:
[1] = test system: ARID1A-mutated TOV21G cells; assay: ACY1215 sensitivity of TOV21G cells with or without wildtype ARID1A restoration; assay type: cell-based, human
Method: Colony formation assays were performed as follows. Cell lines were infected with lentivirus pLKO.1-shRNAs or pLKO.1-control with puromycin selection marker. Infected cells were selected with 1 μg/mL of puromycin for 72 hours and the selected cells were seeded in 12-well or 24-well plates. Cell medium was changed every three days with appropriate drug doses for 14 days or until control wells became confluent. Colonies were washed twice with PBS and fixed with 10% methanol and 10% acetic acid in distilled water. Fixed colonies were stained with 0.005% crystal violet. Integrated density was measured using NIH ImageJ software.

[2] = test system: p53 target genes (BAX, PUMA, NOXA, CDKN1A) in ARID1A-mutated TOV21G cells; assay: RNA-seq of p53 target genes; assay type: cell-based, human; settings: 1.25 μM
Source text: RNA was extracted and utilized for next generation sequencing (RNA-seq). Expression of p53 target genes known to regulate apoptosis such as BAX, PUMA and NOXA, and known to regulate cell cycle arrest such as CDKN1A were not altered by HDAC6 inhibition in RNA-seq analysis.

[3] = test system: ARID1A wild-type RMG1 tumors; assay: intrabursal orthotopic xenograft, ARID1A wild-type RMG1; assay type: in vivo, mice
Method: The consecutive sections of tumors dissected from the indicated treatment groups were subjected to immunohistochemical staining for HDAC6, Ki67, cleaved caspase 3 and p53K120AC. Scale bar=100 μm.
Histological score (H-score) was calculated for 5 separate fields from 6 tumors from 6 individual mice from each of the indicated groups. Error bars represent S.E.M. The p-values were calculated via two-tailed t-test.
Immunofluorescence and immunohistochemical staining was performed as follows. Immunofluorescence was performed after 48 hours as indicated by fixing samples in 4% paraformaldehyde and permeabilizing with 0.5% Triton-X. Samples were incubated with primary antibodies for 2 hours at room temperature, highly cross absorbed secondary antibodies (Invitrogen) for 1 hour at room temperature and mounted with prolong anti-fade reagent (Invitrogen). […] Expression of the stained markers was scored using a histologic score (H score) as previously described. […]
The intrabursal orthotopic xenograft in vivo model was performed as described previously (Bitler et al. Nat. Med. 2015, 21, 231-238; Bitler et al. Cancer Research 2011, 71, 6184-6194). […] Images were analyzed using Live Imaging 4.0 software. At end of the experiments, tumors were surgically dissected and tumor burden was calculated based on tumor weight. Intraperitoneally disseminated tumor nodules were quantified.

[4] = test system: p53K120Ac in ARID1A wild-type RMG1 cells with or without ARID1A knockdown; assay: immunoblot of p53K120Ac, RMG1 with or without shARID1A; assay type: cell-based, human; settings: 1.25 μM
Method: Expression of the indicated proteins was examined by immunoblot. GAPDH expression was used as a loading control.
For immunoblotting, protein was isolated as described in Bitler et al. Nat. Med. 2015, 21, 231-238. Briefly, protein was extracted with RIPA buffer (150 mM NaCl, 1% NP40, 0.5% sodium deoxycholate, 0.1% SDS, 50 mM Tris pH 8.0, and 1 mM PMSF). Protein was separated on a SDS-PAGE and transferred to PVDF membrane. For immunoblot of p53 post-translation modifications, cells were treated with a proteasome inhibitor MG132 (10 μM) to stabilize p53 protein.

[5] = clinical trials for hematopoietic malignancies; Santo et al. Blood 2012; cited from earlier work
[6] = test system: primary clear cell ovarian tumour cultures with (VOA4841) and without (XVOA295) ARID1A expression; assay: colony formation / dose response, primary clear cell ovarian tumour cultures; assay type: cell-based, human
Method: FIG. 71 illustrates the HDAC6 inhibitor ACY1215 dose response curves of primary clear cell ovarian tumour cultures with (VOA4841) and without (XVOA295) ARID1A expression; n=3 independent experiments.
Cell lines and 3D culture conditions. The protocol for using primary cultures of human ovarian clear cell tumour cells was approved by the University of British Columbia Institutional Review Board. The primary tumour cells were cultured in RPMI 1640 supplemented with 10% fetal bovine serum (FBS) and 1% penicillin/streptomycin. Ovarian clear cell carcinoma cell lines (TOV21G, OVTOKO, OVISE and RMG1) were purchased from JCRB (Japanese Collection of Research Bioresources) Cell Bank. TOV21G, OVTOKO, and OVISE cells were cultured in RPMI 1640 supplemented with 10% fetal bovine serum (FBS) and 1% penicillin/streptomycin. RMG1 cells were cultured in 1:1 Dulbecco's modified Eagle's medium (DMEM):F12 supplemented with 10% FBS. Viral packaging cells were cultured in DMEM supplemented with 10% FBS at 37° C. supplied with 5% CO2. Cells lines are authenticated at The Wistar Institute's Genomics Facility using short tandem repeat DNA profiling. Regular Mycoplasma testing was performed using LookOut Mycoplasma PCR detection (Sigma-Aldrich Co.). […]
Colony formation assays were performed as follows. […] Integrated density was measured using NIH ImageJ software.

[7] = test system: p53K120Ac in ARID1A-mutated TOV21G cells; assay: mitochondrial localization of p53K120Ac (immunofluorescence, cellular fractionation); assay type: cell-based, human; settings: 1.25 μM
Source text: FIG. 42 illustrates that apoptosis induced by HDAC6 inhibition in ARD1A-mutated cells correlates with mitochondrial localization of p53K120Ac and a decrease in mitochondrial membrane potential. […] Images were captured using confocal microscopy.
Mean of three independent experiments with S.E.M.
Expression of p53K120Ac, mitochondrial marker TOM20, and total p53 in the indicated fractions was examined by immunoblot. GAPDH expression was used as a loading control.
Immunofluorescence and immunohistochemical staining was performed as follows. Immunofluorescence was performed after 48 hours as indicated by fixing samples in 4% paraformaldehyde and permeabilizing with 0.5% Triton-X. Samples were incubated with primary antibodies for 2 hours at room temperature, highly cross absorbed secondary antibodies (Invitrogen) for 1 hour at room temperature and mounted with prolong anti-fade reagent (Invitrogen). Immuno-stained cells were imaged using a Leica Confocal microscope. […] Bitler et al. Nat. Med. 2015, 21, 231-238; Bitler et al. Cancer Research 2011, 71, 6184-6194. Expression of the stained markers was scored using a histologic score (H score) as previously described. McCarty, Jr. et al. Cancer research 1986, 46, 4244s-4248s.
Mitochondria were isolated using the Mitochondria Isolation Kit (Thermo Fisher Scientific). […]

## O=C(CCCCCCNC(=O)c1cnc(N(c2ccccc2)c2ccccc2)nc1)NO [rocilinostat, 2-(diphenylamino)-N-(7-(hydroxyamino)-7-oxoheptyl)pyrimidine-5-carboxamide]
[1]
  effect of restoration of wildtype ARID1A on sensitivity: reduced the sensitivity
[2]
  expression of p53 target genes (BAX, PUMA, NOXA, CDKN1A): not altered
[3]; 50 mg/kg daily, 3 weeks
  growth, tumor burden, dissemination of ARID1A wild-type tumors: did not significantly affect the growth, tumor burden or dissemination
[3]; ARID1A wild-type tumors
  expression of Ki67, cleaved caspase 3, p53K120Ac (IHC): did not affect the expression of Ki67, cleaved caspase 3, or p53K120Ac
[4]
  p53K120Ac in ARID1A knockdown cells compared with controls: significant increase in p53K120Ac
[5]
  tolerability in clinical studies: well-tolerated without a dose-limiting toxicity; also recorded: well-tolerated and show minimal toxicity
[6]
  IC50 values in primary cells: comparable to those observed in cell lines
  sensitivity of cultures without ARID1A expression compared to those with ARID1A expression: more sensitive
[7]; cellular fractionation
  p53K120Ac in the mitochondrial fraction: increase in p53K120Ac in the mitochondrial fraction
[7]; immunofluorescence
  co-localization of p53K120Ac and mitochondrial marker TOM20: significant increase in co-localization
